Measurements: paper PMC7053711, “A G protein–coupled receptor mediates neuropeptide-induced oocyte maturation in the jellyfish Clytia” (PLoS Biology, 2020)
Peptide text beside a SMILES is read from it.

How the values were obtained:
Clytia MIHR [1] = test: Dose–response curves of Clytia MIHR, luminescence (CHO-K1 cells, Gα-16, GFP-apoaequorin); format: cell-based, Clytia hemisphaerica; parameters: key to Span (best-fit value) / Bottom (best-fit value): % activation, normalized to fitted upper plateau (100%); details: for EC50: four-parameter fit, variable slope, triplicate; for HillSlope / LogEC50: best-fit value; for Span / Top / Bottom: best-fit value (luminescence)
Procedure: The Clytia MIH amidated peptides are produced from two precursor genes Che-pp4 (generating multiple copies of WPRAamide, WPRYamide, and WPRPamide) and Che-pp1 (multiple copies of WPRPamide and RPRGamide).
(§1) Cell culture GPCR ligand response assays were performed as described. Briefly, CHO-K1 cells were cultured in Ham’s F12 Nut Mix medium (Thermo Fisher Scientific) with 10% foetal bovine serum. Cells were seeded in 96-well plates at approximately 10,000 cells/well and transfected the following day with pcDNA3.1(+) plasmids encoding each of the 16 candidate Clytia GPCRs (S2 Text), the promiscuous Gα-16 protein [65], and a reporter construct GFP-apoaequorin [66] (60 ng each) using the transfection reagent TurboFect (Thermo Fisher Scientific). After 2 days of expression, the medium was removed and replaced with Hank’s balanced salt solution (HBSS) supplemented with 1.8 mM Ca2+, 10 mM glucose, and […] coelenterazine h (Promega, Madison, WI). After incubation at 37 °C for 2 hours, cells were tested by adding synthetic peptides (GenScript) in HBSS supplemented with 1.8 mM Ca2^+ and 10 mM glucose. A list of all synthetic peptides used is provided in S2 Table. Luminescence was recorded for 45 seconds in a plate reader (BioTek Synergy Mx or Synergy H4; BioTek, Winooski, VT). Data were integrated over the 45-second measurement period and recorded as technical triplicates in each case. Data were normalized using the response of Platynereis FLamide receptor to 1 μM AKYFL-NH2 [28]. Dose–response curves were obtained using concentrations between 0.01 nM and 100 μM for each peptide. Data for dose–response curves were recorded in triplicate for each concentration and the experiment was repeated independently 3 times. Dose–response curves were fitted with a four-parameter curve using Prism 6 (GraphPad, La Jolla, CA) and were normalized to the calculated upper plateau values (100% activation).
Supplementary file pbio.3000614.s012.xlsx: S2 Data Numerical data corresponding to Fig 1C. The first three tabs show statistical values obtained using Prism 6 software (GraphPad, La Jolla, CA) from the raw luminescence values for 3 independent dose–response experiments. The raw luminescence values are shown, as well as the values normalized with respect to the maximum. […] MIH, maturation-inducing hormone. (XLSX) Click here for additional data file.

Clytia MIHR [2] = test: GPCR deorphanization assay, luminescence response to peptides at 1 μM (CHO-K1 cells, Gα-16, GFP-apoaequorin); format: cell-based, Clytia hemisphaerica; details: peptide 1E-6M, normalised to Platynereis FLamide receptor + 1 μM AKYFL-NH2, n = 3
Excerpt: We used a cell culture–based GPCR deorphanization assay to identify the MIH receptor from our candidate shortlist. cDNAs for each candidate were transfected into Chinese Hamster ovary K1 (CHO-K1) cells along with the promiscuous Gα protein Gα-16, and an aequorin-GFP luminescence reporter that measures Ca^2+ mobilization downstream of this heterologous Gα protein [27, 28]. We first screened the 16 candidate Clytia GPCRs against a mixture of 33 synthetic amidated peptides (including MIHs) predicted to be generated from previously identified putative Clytia neuropeptide precursors and one additional one identified from transcriptome data. Given our imperfect knowledge of pro-peptide processing in cnidarians, some of the synthetic peptides may not correspond to endogenous peptides. Only one of the 16 GPCRs was activated by this peptide mixture. This receptor responded well to all 4 synthetic Clytia MIH tetrapeptides, as well as to related Cladonema MIH peptides that can also activate Clytia oocyte maturation, but not to other Clytia peptide mixtures or poorly active MIH penta-/tripeptides. We termed this Clytia GPCR the Maturation Inducing Hormone Receptor (MIHR). The activity of individual peptides at 1 μM to stimulate the MIHR closely matched their in vivo ability to induce oocyte maturation (Fig 1B).
as §1
Supplementary file pbio.3000614.s011.xlsx: S1 Data Numerical data corresponding to Fig 1B. Raw luminescence values obtained in triplicate for each of the neuropeptide combinations tested against the MIHR in the deorphanization assay are provided. In the right-hand table, the raw luminescence values obtained in quadruple for the positive and negative controls are provided. In the lower table, means and standard errors of the mean of the luminescence values obtained for each neuropeptide combination and controls are also shown, as well as the values normalized to the positive control, which were used to prepare the graph shown in Fig 1B. MIHR, MIH receptor. (XLSX) Click here for additional data file.

[3] = tested on: fully grown oocytes isolated from MIHR mutant (n5-23) gonads; test: Oocyte maturation assay, MIHR mutant isolated oocytes (GVBD); format: cell-based, Clytia hemisphaerica; details: for Oocyte maturation (number) / Percentage of Oocytes maturing: 4mM BrcAMP, MIH R K.O.
Excerpt: (§2) Fig 4 Oocyte maturation failure in MIHR mutant medusae. Oocyte maturation assays performed using isolated gonads (A, B) or isolated oocytes (C) from MIHR mutant jellyfish compared to WT. In A and C, bar heights represent mean percentages of 3 independent experiments and error bars show standard deviations. Total gonad or oocyte numbers for each treatment are indicated in gray. (A) Spawning response of isolated gonads from WT and n5-23 female medusae. Three treatments were compared as indicated above each panel: Light: light stimulation after incubation in the dark; MIH: treatment of light-maintained gonads with 100 nM WPRPamide; cAMP: treatment of light-maintained gonads with 4 mM Br-cAMP. […] Full datasets from three independent experiments are available in S3 Data. (B) Light microscope images illustrating gonads from an equivalent experiment performed with n5-13 female MIHR mutant medusae 120 minutes after the indicated treatments. Scale bar: 500 μm. […] Full datasets from 3 independent experiments are available in S3 Data. Br-cAMP, bromoadenosine 3′,5′-cyclic monophosphate; cAMP, cyclic adenosine monophosphate; KO, knockout; MIH, maturation-inducing hormone; MIHR, MIH receptor; WT, wild-type.
(§3) Fully grown oocytes were isolated manually from dissected gonads of wild-type and MIHR KO mutant jellyfish prepared as above. Maturation assays were performed in wells of 96-well plates or small plastic petri dishes lined with 2% agarose in MFSW. Spontaneous maturation occurs at a low frequency in control oocytes. To test MIH-induced maturation, 10 μL WPRPamide from 1 μM solution in MFSW was added to a final concentration of 100 nM. In some experiments, Br-cAMP from a 20 mM stock in H2O was used at a final concentration of 4 mM. GVBD was scored at 30 minutes, every 5 minutes, depending on experiments.
(§4) Supplementary file pbio.3000614.s013.xlsx: S3 Data Numerical data corresponding to Fig 4A and 4C. The first tab collects all the raw data from 3 independent gonad spawning assays. Information corresponding to the Fisher exact tests is also shown. […] The means and standard deviations were used to prepare the graph in Fig 4C. Information corresponding to the Fisher exact tests is also shown. (XLSX) Click here for additional data file.

[4] = tested on: MIHR mutant (n5-23, n5-13) isolated female gonads; test: Gonad spawning assay, MIHR mutant isolated gonads; parameters: species or system Clytia hemisphaerica; details: for Gonads spawning (number) / Percentage of spawning gonads: 4mM BrcAMP, MIH R K.O.
Procedure: (§5) We performed a series of oocyte maturation and spawning assays, comparing the responses of wild-type and MIHR mutant isolated gonads and oocytes to different stimuli (Fig 4).
(§6) Sexually mature MIHR mutant medusae from colonies n5-13 and n5-23 and wild-type medusae were cultured on the same day–night cycle. Individual gonads were dissected in the evening after afternoon spawning. To test the light response, one group of each was transferred to 100 μL MFSW in wells of 96-well plastic plates, covered overnight, and re-exposed to white light the following day. To test responses to MIH and cAMP, other groups of dissected gonads were cultured overnight in constant light, then transferred to 96-well plastic plates for two hours. MIH was added to wells as an equal volume of 200 nM WPRPamide (GenScript) stock in MFSW was added to give a final concentration of 100 nM. Alternatively, a stock of 20 mM bromo adenosine 3′,5′cyclic monophosphate (Br-cAMP–Fluka; Sigma Aldrich) in distilled water was added to give a final concentration of 4 mM. Gonads were washed after 5 minutes incubation in Br-cAMP. Oocyte maturation was scored after 30 minutes as germinal vesicle breakdown (GVBD), i.e., visible dissolution of the oocyte nuclear membrane upon entry into M phase, which in all cases was followed by spawning about 1 hour later.
as §4

[5] = tested on: fully grown oocytes isolated from WT gonads; test: Oocyte maturation assay, wild-type isolated oocytes (GVBD); format: cell-based, Clytia hemisphaerica; details: for Oocyte maturation (number) / Percentage of Oocytes maturing: 4mM BrcAMP, wild type
Excerpt: as §2, §3, §4

[6] = tested on: wild-type (WT) isolated female gonads; test: Gonad spawning assay, wild-type isolated gonads; parameters: species or system Clytia hemisphaerica; details: for Gonads spawning (number) / Percentage of spawning gonads: 4mM BrcAMP
Procedure: as §5, §6, §4

[7] = log(agonist) vs. response, variable slope (four parameters), fit of third dataset
[8] = BrcAMP, pooled n=92, Fisher exact test vs WT 0.215946, not significant at p < .01
[9] = BrcAMP, pooled n=29, Fisher exact test vs WT not significant at p < .01
[10] = BrcAMP, pooled n=59, Fisher exact test vs MIHR KO 0.215946, not significant at p < .01
[11] = wild type, replicate 1, total 12
[12] = wild type, replicate 2, total 10
[13] = wild type, replicate 3, total 10
[14] = BrcAMP, pooled n=32, Fisher exact test vs MIHR KO not significant at p < .01

## N=C(N)NCCC[C@H](NC(=O)[C@@H]1CCCN1C(=O)[C@@H](N)CCCNC(=N)N)C(=O)NCC(N)=O [RPRGa] (H-RPRG-NH2; N-terminus assumed)
Clytia MIHR [1]; dataset/experiment 1
  EC50: 724 nM
Clytia MIHR [1]; dataset/experiment 2
  EC50: 2210 nM
Clytia MIHR [1]; first dataset
  HillSlope: 1.15
  LogEC50: -6.14
  Span: 80378
  Top: 82566
Clytia MIHR [1]; [7]
  HillSlope (best-fit value): 1.139
  LogEC50 (best-fit value): -5.859
  Span (best-fit value): 89.45
Clytia MIHR [1]; second dataset
  HillSlope: 0.9524
  LogEC50: -5.656
  Span: 33216
  Top: 36059
Clytia MIHR [1]; three independent dose–response experiments
  EC50 / relative activity on MIHR: the lowest
Clytia MIHR [2]
  Normalised response (to positive control), mean: 0.2052

## C[C@H](NC(=O)[C@H](CCCNC(=N)N)NC(=O)[C@@H]1CCCN1C(=O)[C@@H](N)Cc1c[nH]c2ccccc12)C(N)=O [WPRAa] (H-WPRA-NH2; N-terminus assumed)
Clytia MIHR [1]; dataset/experiment 1
  EC50: 140 nM
Clytia MIHR [1]; dataset/experiment 2
  EC50: 940 nM
Clytia MIHR [1]; first dataset
  HillSlope: 1.505
  LogEC50: -6.854
  Bottom: 1277
  Span: 50384
  Top: 51660
Clytia MIHR [1]; [7]
  Bottom (best-fit value): 12.04
  HillSlope (best-fit value): 1.48
  LogEC50 (best-fit value): -6.272
  Span (best-fit value): 87.97
Clytia MIHR [1]; second dataset
  HillSlope: 1.06
  LogEC50: -6.027
  Bottom: 2165
  Span: 21649
  Top: 23814
Clytia MIHR [2]
  Normalised response (to positive control), mean: 0.2465

## AWPRP-NH2 [AWPRPa]
Clytia MIHR [2]
  Normalised response (to positive control), mean: 0.02128

## RPRP-NH2 [RPRPa, Cladonema MIH tetrapeptide, RPRP-NH2]
Clytia MIHR [2]
  Normalised response (to positive control), mean: 0.33

## Nc1ncnc2c1nc(Br)n2[C@@H]1O[C@@H]2COP(=O)(O)O[C@H]2[C@H]1O [BrcAMP]
[3]; replicate 1, total 31
  Oocyte maturation (number): 30
  Percentage of Oocytes maturing: 96.77
[3]; replicate 2, total 14
  Oocyte maturation (number): 12
  Percentage of Oocytes maturing: 85.71
[3]; replicate 3, total 47.00
  Oocyte maturation (number): 41
  Percentage of Oocytes maturing: 87.23
[3]; BrcAMP, MIHR KO, pooled n=92
  % oocytes maturing, pooled: 90.2174%
[3]; [8]
  Maturing oocytes, MIHR KO YES: 83
  Non-maturing oocytes, MIHR KO NO: 9
[4]; replicate 1, total 4
  Gonads spawning (number): 4
  Percentage of spawning gonads: 100
[4]; replicate 2, total 18
  Gonads spawning (number): 18
  Percentage of spawning gonads: 100
[4]; replicate 3, total 7
  Gonads spawning (number): 7
  Percentage of spawning gonads: 100
[4]; BrcAMP, MIHR K.O., summary of 3 replicates
  Percentage of spawning gonads (summary): 100
[4]; [9]
  Non-spawning gonads, MIHR KO NO: 0
  Spawning gonads, MIHR KO YES: 29
[5]; replicate 1, total 15
  Oocyte maturation (number): 15
  Percentage of Oocytes maturing: 100.00
[5]; replicate 2, total 26
  Oocyte maturation (number): 21
  Percentage of Oocytes maturing: 80.77
[5]; replicate 3, total 18.00
  Oocyte maturation (number): 13
  Percentage of Oocytes maturing: 72.22
[5]; BrcAMP, WT, pooled n=59
  % oocytes maturing, pooled: 83.0508%
[5]; [10]
  Maturing oocytes, WT YES: 49
  Non-maturing oocytes, WT NO: 10
[6]; [11]
  Gonads spawning (number): 12
  Percentage of spawning gonads: 100
[6]; [12]
  Gonads spawning (number): 10
  Percentage of spawning gonads: 100
[6]; [13]
  Gonads spawning (number): 10
  Percentage of spawning gonads: 100
[6]; [14]
  Non-spawning gonads, WT NO: 0
  Spawning gonads, WT YES: 32
[6]; BrcAMP, wild type, summary of 3 replicates
  Percentage of spawning gonads (summary): 100
